Source: PubChem BioAssay AID1963866 (Molecular Pharmacology Branch, DTP, NCI, 2024)
Active and inactive are the calls of the source. Rule for the calls: active = viability on the fitted dose curve at most 10% of control; inactive = the rest.

Test system: PDC KRAS tumor spheroids with HUVEC/MSC, viability
Experiment: Anticancer human tumor 349418-098-R-PDC patient-derived lung adenocarcinoma cell line growth inhibition [KRAS2]
Conditions: for IC50: curve of first compound; for viability, T/C: stronger effect = lower value
Outline: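 KRAS-mutant tumor cells were grown as spheroids with HUVEC endothelial cells and human MSCs as stroma. Targeted agents were tested alone and with KRAS pathway inhibitors. Doses started at or near clinical Cmax, or 10 microM, descending half-log.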

[1] = second compound 0.1 µM, first compound 0.0316 µM
[2] = second compound 0.1 µM, first compound 0.1 µM
[3] = second compound 0.1 µM, first compound 0.316 µM
[4] = second compound 0.1 µM, first compound 1 µM
[5] = second compound 0.1 µM, first compound 3.16 µM
[6] = second compound 0.1 µM, first compound 10 µM
[7] = second compound 0.316 µM, first compound 0.0316 µM
[8] = second compound 0.316 µM, first compound 0.1 µM
[9] = second compound 0.316 µM, first compound 0.316 µM
[10] = second compound 0.316 µM, first compound 1 µM
[11] = second compound 0.316 µM, first compound 3.16 µM
[12] = second compound 0.316 µM, first compound 10 µM
[13] = second compound 1 µM, first compound 0.0316 µM
[14] = second compound 1 µM, first compound 0.1 µM
[15] = second compound 1 µM, first compound 0.316 µM
[16] = second compound 1 µM, first compound 1 µM
[17] = second compound 1 µM, first compound 3.16 µM
[18] = second compound 1 µM, first compound 10 µM
[19] = second compound 3.16 µM, first compound 0.0316 µM
[20] = second compound 3.16 µM, first compound 0.1 µM
[21] = second compound 3.16 µM, first compound 0.316 µM
[22] = second compound 3.16 µM, first compound 1 µM
[23] = second compound 3.16 µM, first compound 3.16 µM
[24] = second compound 3.16 µM, first compound 10 µM
[25] = second compound 10 µM, first compound 0.0316 µM
[26] = second compound 10 µM, first compound 0.1 µM
[27] = second compound 10 µM, first compound 0.316 µM
[28] = second compound 10 µM, first compound 1 µM
[29] = second compound 10 µM, first compound 3.16 µM
[30] = second compound 10 µM, first compound 10 µM
[31] = second compound 0.1 µM, first compound 0.000316 µM
[32] = second compound 0.1 µM, first compound 0.001 µM
[33] = second compound 0.1 µM, first compound 0.00316 µM
[34] = second compound 0.1 µM, first compound 0.01 µM
[35] = second compound 0.316 µM, first compound 0.000316 µM
[36] = second compound 0.316 µM, first compound 0.001 µM
[37] = second compound 0.316 µM, first compound 0.00316 µM
[38] = second compound 0.316 µM, first compound 0.01 µM
[39] = second compound 1 µM, first compound 0.000316 µM
[40] = second compound 1 µM, first compound 0.001 µM
[41] = second compound 1 µM, first compound 0.00316 µM
[42] = second compound 1 µM, first compound 0.01 µM
[43] = second compound 3.16 µM, first compound 0.000316 µM
[44] = second compound 3.16 µM, first compound 0.001 µM
[45] = second compound 3.16 µM, first compound 0.00316 µM
[46] = second compound 3.16 µM, first compound 0.01 µM
[47] = second compound 10 µM, first compound 0.000316 µM
[48] = second compound 10 µM, first compound 0.001 µM
[49] = second compound 10 µM, first compound 0.00316 µM
[50] = second compound 10 µM, first compound 0.01 µM
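Note: spheroids exposed to compounds for seven days before readout.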

| SMILES | IC50 (second compound 0.1 µM) [nM] | IC50 (second compound 0.316 µM) [nM] | IC50 (second compound 1 µM) [nM] | IC50 (second compound 3.16 µM) [nM] | IC50 (second compound 10 µM) [nM] | viability, T/C [1] [%] | viability, T/C [2] [%] | viability, T/C [3] [%] | viability, T/C [4] [%] | viability, T/C [5] [%] | viability, T/C [6] [%] | viability, T/C [7] [%] | viability, T/C [8] [%] | viability, T/C [9] [%] | viability, T/C [13] [%] | viability, T/C [14] [%] | viability, T/C [19] [%] | viability, T/C [20] [%] | viability, T/C [25] [%] | viability, T/C [26] [%] | further results |
| --- | --- | --- | --- | --- | --- | --- | --- | --- | --- | --- | --- | --- | --- | --- | --- | --- | --- | --- | --- | --- | --- |
| CC(C)NCC(C(=O)N1CCN(c2ncnc3c2C(C)CC3O)CC1)c1ccc(Cl)cc1 (stereo not given) + COc1cc2nc(C)nc(NC(C)c3cc(N)cc(C(F)(F)F)c3)c2cc1OC1CCOC1 | 279 | 270 | 178 | 146 | < 31.6 | 98.1 | 73 | 49.4 | 23.1 | 10.2 | 6.37 | 85.4 | 77 | 44.8 | 93 | 66.4 | 71.9 | 58.3 | 26.9 | 20.7 | viability, T/C [10]: 18.9%; viability, T/C [11]: 7.59%; viability, T/C [12]: 6.32%; viability, T/C [15]: 31.4%; viability, T/C [16]: 22%; viability, T/C [17]: 6.85%; viability, T/C [18]: 3.87%; outcome [21]: inactive; viability, T/C [22]: 13.9%; viability, T/C [23]: 6.58%; viability, T/C [24]: 5.75%; viability, T/C [27]: 7.61%; viability, T/C [28]: 3.94%; viability, T/C [29]: 1.89%; viability, T/C [30]: 2.67% |
| CC(C)n1nc(-c2ccc3oc(N)nc3c2)c2c(N)ncnc21 + COc1cc2nc(C)nc(NC(C)c3cc(N)cc(C(F)(F)F)c3)c2cc1OC1CCOC1 | 1.14 | 0.791 | 0.969 | 1.27 | < 0.316 | 9.94 | 7.92 |  |  |  |  | 8.96 | 8.23 |  | 8.55 | 7.48 | 8.73 | 7.6 | 4.36 | 5.51 | viability, T/C [31]: 118%; viability, T/C [32]: 54.2%; viability, T/C [33]: 16.5%; viability, T/C [34]: 10.9%; viability, T/C [35]: 106%; viability, T/C [36]: 35.6%; viability, T/C [37]: 15.3%; viability, T/C [38]: 8.46%; viability, T/C [39]: 102%; viability, T/C [40]: 48.5%; viability, T/C [41]: 16.2%; viability, T/C [42]: 9.11%; viability, T/C [43]: 99.7%; viability, T/C [44]: 58.4%; viability, T/C [45]: 18.1%; viability, T/C [46]: 8.93%; viability, T/C [47]: 34.2%; viability, T/C [48]: 11.4%; viability, T/C [49]: 4.75%; viability, T/C [50]: 5.13% |
| CC1(C)CCC(CN2CCN(c3ccc(C(=O)NS(=O)(=O)c4ccc(NCC5CCOCC5)c([N+](=O)[O-])c4)c(Oc4cnc5[nH]ccc5c4)c3)CC2)=C(c2ccc(Cl)cc2)C1 + COc1cc2nc(C)nc(NC(C)c3cc(N)cc(C(F)(F)F)c3)c2cc1OC1CCOC1 | 1770 | 1860 | 1760 | 1560 | < 31.6 | 104 | 103 | 105 | 85.1 | 14 | 5.48 | 104 | 97.9 | 95.3 | 102 | 94.2 | 78.9 | 93.9 | 35.2 | 32.9 | viability, T/C [10]: 90.6%; viability, T/C [11]: 15.3%; viability, T/C [12]: 4.54%; viability, T/C [15]: 95.7%; viability, T/C [16]: 86.1%; viability, T/C [17]: 12.8%; viability, T/C [18]: 3.87%; viability, T/C [21]: 86%; viability, T/C [22]: 75.1%; viability, T/C [23]: 10.2%; viability, T/C [24]: 5.85%; viability, T/C [27]: 32.3%; viability, T/C [28]: 21.9%; viability, T/C [29]: 4.35%; viability, T/C [30]: 2.8% |
| Cn1ncnc1[C@H]1c2n[nH]c(=O)c3cc(F)cc(c23)N[C@@H]1c1ccc(F)cc1 + COc1cc2nc(C)nc(NC(C)c3cc(N)cc(C(F)(F)F)c3)c2cc1OC1CCOC1 | > 100 | > 100 | > 100 | > 100 | < 0.316 | 91.6 | 82.4 |  |  |  |  | 88.3 | 81.1 |  | 83.4 | 77.7 | 74.1 | 78.1 | 31 | 24.3 | viability, T/C [31]: 103%; viability, T/C [32]: 99.9%; viability, T/C [33]: 100%; viability, T/C [34]: 95.8%; viability, T/C [35]: 97%; viability, T/C [36]: 92.7%; viability, T/C [37]: 97.2%; viability, T/C [38]: 89.5%; viability, T/C [39]: 97.3%; viability, T/C [40]: 97%; viability, T/C [41]: 93.9%; viability, T/C [42]: 87.5%; viability, T/C [43]: 92.5%; viability, T/C [44]: 88.6%; viability, T/C [45]: 86.3%; viability, T/C [46]: 85.2%; viability, T/C [47]: 36.2%; viability, T/C [48]: 20.6%; viability, T/C [49]: 23%; viability, T/C [50]: 23.2% |
